Test results from US10315994B2, “Photostable compounds, absorbing compounds and uses thereof” (Commonwealth Scientific and Industrial Research Organisation, priority 2015, dated 2019).
Values belong to the molecule of their own block, whether it stands above or below them.

Assays:
Assay type in all cases: physicochemical
[1] = UV/visible absorbance characteristics (λmax, λcrit, ε, E 1%,1 cm); settings: for ε: in M-1 cm-1 (unit assumed); for Peak point of absorbance curve (figure legend): unirradiated control, FIGS. 3-5
[2] = Photostability of thin films exposed to xenon arc lamp; settings: for % λmax (% of original absorbance remaining): absorbance at λmax, irradiated vs unirradiated; for % λmax (% of original absorbance remaining) / % abs total (% of original absorbance remaining): xenon arc lamp 1 hour, thin film; for % abs total (% of original absorbance remaining): sum of absorbance 290-400 nm
Method: 1 mL of a 3% solution of the test compound (30 mg of test compound in 1 mL solvent) was prepared in a solvent mix made up of 50% EtOH and 25% capric/caprylic triglyceride and 25% C12-C15 alkyl benzoate. 50 μL of this solution (containing 1.5 mg of test compound) was added carefully to the centre of a glass microscope slide and the volatile components left to evaporate in the dark for at least 3 hours to give a liquid film. […] The irradiation was performed in a fume cupboard where the air flow was sufficient to keep sample T<30° C. One hour's exposure represented a calculated radiation dose (using meter) of approximately 100 MED.
In order to calculate the photostability of the test compounds, the exposed slides were placed in a beaker and rinsed with 2×5 mL EtOH, 1×5 mL MeOH. The combined washings were then added to a 100 mL volumetric flask and made up to 100 mL total volume with methanol. The UV absorbance was then measured in a 10 mm cuvette. The percent stability is measured as the ratio of absorbance at λmax for the irradiated sample compared to the unirradiated sample. As a further measure, a comparison of the sum of the absorbance in the 290-400 nm range was calculated.
The thin films are a good surrogate for testing the stability of a candidate in a sunscreen formulation as they use cosmetic emollients as solvent and are formed at cosmetically relevant concentrations.

[3] = Solubility in sunscreen formulation / 3% solution in EtOH:capric/caprylic triglyceride:C12-C15 alkyl benzoate; settings: for Solubility in standard commercial sunscreen formulations: e.g. 3% solution in 2:1:1 EtOH:capric/caprylic triglyceride:C12-C15 alkyl benzoate
Method: In one embodiment, the compounds may provide for improved solubility or stability in standard compositions, including sunscreen compositions. […] Such solubility may be measured by generating, for example, a 3% solution of the relevant compound in 2:1:1 EtOH:capric/caprylic triglyceride:C12-C15 alkyl benzoate.
1 mL of a 3% solution of the test compound (30 mg of test compound in 1 mL solvent) was prepared in a solvent mix made up of 50% EtOH and 25% capric/caprylic triglyceride and 25% C12-C15 alkyl benzoate. 50 μL of this solution (containing 1.5 mg of test compound) was added carefully to the centre of a glass microscope slide and the volatile components left to evaporate in the dark for at least 3 hours to give a liquid film. The prepared films were then exposed for 1 hour to an Eimac 150 W xenon arc lamp filtered through Pyrex (15 Amp supply current, samples 19 cm from the lamp) previously allowed to warm up for 15 minutes prior to sample exposure. The irradiation was performed in a fume cupboard where the air flow was sufficient to keep sample T<30° C. One hour's exposure represented a calculated radiation dose (using meter) of approximately 100 MED.

SMILES: CC1(C)CCN(C(C)(C)C)C=C1C(=O)C(Cl)(Cl)Cl [Compound 169]
- E (1%, 1 cm) ([1]; Table 6): 497
- λcrit ([1]; Table 6): 361 nm
- λmax ([1]; Table 6): 334 nm
- ε ([1]; Table 6): 16618
- Fate under irradiation [2]: effectively destroyed
- Photostability (%) ([2]; Table 6): 5%

SMILES: CC1(C)CCN(C(C)(C)C)C=C1C(=O)CF
- E (1%, 1 cm) ([1]; Table 5): 1655
- λcrit ([1]; Table 5): 326 nm
- λmax ([1]; Table 5): 310 nm
- ε ([1]; Table 5): 37586
- Photostability (%) ([2]; Table 5): 30%

SMILES: CC1(C)CCN(C(C)(C)C)C=C1C(=O)C(F)(F)F [Compound 98]
- E (1%, 1 cm) ([1]; Table 1): 1380
- λcrit ([1]; Table 1): 331 nm
- λmax ([1]; Table 1): 315 nm
- ε ([1]; Table 1): 36298
- E (1%, 1 cm) ([1]; Table 6): 1380
- λcrit ([1]; Table 6): 331 nm
- λmax ([1]; Table 6): 315 nm
- ε ([1]; Table 6): 36298
- Peak point of absorbance curve (figure legend) [1]: approximately 320 nm
- Photostability (%) ([2]; Table 6): 89%
- % λmax (% of original absorbance remaining) [2]: 88%
- Photostability, % remaining after irradiation ([2]; exposure to the lamp for 1 h): 88%
- % abs total (% of original absorbance remaining) [2]: 84%

SMILES: CC1(C)CCN(C(C)(C)C)C=C1C(=O)C(Br)(Br)Br [drawing 125]
- E (1%, 1 cm) ([1]; Table 5): 321
- λcrit ([1]; Table 5): 361 nm
- λmax ([1]; Table 5): 330 nm
- ε ([1]; Table 5): 14203
- Photostability (%) ([2]; Table 5): 13%

SMILES: CC1(C)CCN(C(C)(C)C)C=C1C(=O)C(F)(F)C(F)(F)C(F)(F)C(=O)C1=CN(C(C)(C)C)CCC1(C)C [Compound 168]
- E (1%, 1 cm) ([1]; Table 6): 1177
- λcrit ([1]; Table 6): 337 nm
- λmax ([1]; Table 6): 317 nm
- ε ([1]; Table 6): 63346
- Solubility for determination of photostability ([3]; solvent mix of the photostability method): not sufficiently soluble

SMILES: CCCCC(CC)COC(=O)CCC(=O)C1=CN(c2ccc(N3C=C(C(=O)CCC(=O)OCC(CC)CCCC)C(C)(C)CC3)cc2)CCC1(C)C (centres unmarked) [Compound 153]
- Solubility in standard commercial sunscreen formulations [3]: readily soluble
- % λmax (% of original absorbance remaining) [2]: 52%

SMILES: COc1ccc(N2C=C(C(=O)C(F)(F)F)C(C)(C)CC2)cc1N1C=C(C(=O)C(F)(F)F)C(C)(C)CC1
- E (1%, 1 cm) ([1]; Table 5): 1094
- λcrit ([1]; Table 5): 364 nm
- λmax ([1]; Table 5): 340 nm
- ε ([1]; Table 5): 56720
- Photostability (%) ([2]; Table 5): 100%

SMILES: CC1(C)CCN(C(C)(C)C)C=C1C(=O)C(Br)(Br)Br [Compound 170]
- E (1%, 1 cm) ([1]; Table 6): 321
- λcrit ([1]; Table 6): 361 nm
- λmax ([1]; Table 6): 330 nm
- ε ([1]; Table 6): 14203
- Fate under irradiation [2]: effectively destroyed
- Photostability (%) ([2]; Table 6): 13%

SMILES: CC1(C)CCN(c2cccc(N3C=C(C(=O)C(F)(F)F)C(C)(C)CC3)c2)C=C1C(=O)C(F)(F)F [Compound 160]
- E (1%, 1 cm) ([1]; Table 1): 1380
- λcrit ([1]; Table 1): 364 nm
- λmax ([1]; Table 1): 346 nm
- ε ([1]; Table 1): 67344
- E (1%, 1 cm) ([1]; Table 4): 1380
- ε ([1]; Table 4): 67344
- Photostability (% remains) ([2]; after 1.5 h irradiation): 99 (after 1.5 h, others = 1 h) %

SMILES: CC1(C)CCN(c2ccccc2)C=C1C(=O)C(F)(F)F [Compound 106]
- E (1%, 1 cm) ([1]; Table 1): 1033
- λcrit ([1]; Table 1): 357 nm
- λmax ([1]; Table 1): 335 nm
- ε ([1]; Table 1): 29040
- Peak point of absorbance curve (figure legend) [1]: approximately 335 nm
- % λmax (% of original absorbance remaining) [2]: 97%
- % decomposed after irradiation ([2]; exposure to the lamp for 1 h): less than 5%
- % abs total (% of original absorbance remaining) [2]: 97%

SMILES: CC(F)(F)C(=O)C1=CN(C(C)(C)C)CCC1(C)C
- E (1%, 1 cm) ([1]; Table 5): 1285
- λcrit ([1]; Table 5): 331 nm
- λmax ([1]; Table 5): 314 nm
- ε ([1]; Table 5): 33288
- Photostability (%) ([2]; Table 5): 49%

SMILES: CC1(C)CCN(c2cccc(N3C=C(C(=O)C(F)(F)C(F)(F)C(F)(F)F)C(C)(C)CC3)c2)C=C1C(=O)C(F)(F)C(F)(F)C(F)(F)F [Compound 159]
- E (1%, 1 cm) ([1]; Table 1): 875
- λcrit ([1]; Table 1): 366 nm
- λmax ([1]; Table 1): 348 nm
- ε ([1]; Table 1): 60200
- E (1%, 1 cm) ([1]; Table 4): 875
- ε ([1]; Table 4): 60200
- Photostability (% remains) ([2]; 1 h irradiation): 91%

SMILES: CC1(C)CCN(C(C)(C)C)C=C1C(=O)C(F)F
- E (1%, 1 cm) ([1]; Table 5): 1371
- λcrit ([1]; Table 5): 331 nm
- λmax ([1]; Table 5): 313 nm
- ε ([1]; Table 5): 30868
- Photostability (%) ([2]; Table 5): 43%

SMILES: CC1(C)CCN(C(C)(C)C)C=C1C(=O)C(Cl)(Cl)Cl [drawing 124]
- E (1%, 1 cm) ([1]; Table 5): 497
- λcrit ([1]; Table 5): 361 nm
- λmax ([1]; Table 5): 334 nm
- ε ([1]; Table 5): 16618
- Photostability (%) ([2]; Table 5): 5%

The remaining lines, values ahead:

- E (1%, 1 cm) ([1]; Table 6): 1197
- ε ([1]; Table 6): 59850
- Peak point of absorbance curve (figure legend) [1]: approximately 310 nm
- Photostability (%) ([2]; Table 6): 63%
- % λmax (% of original absorbance remaining) [2]: 63%
- % abs total (% of original absorbance remaining) [2]: 61%
SMILES: CC1(C)CCN(C(C)(C)C)C=C1C(=O)CCCCCCCCC(=O)C1=CN(C(C)(C)C)CCC1(C)C [Compound 54]

- Solubility in standard commercial sunscreen formulations [3]: readily soluble
SMILES: CC(C)=CCCC(C)CC(=O)C1=CN(c2ccc(N3C=C(C(=O)CC(C)CCC=C(C)C)C(C)(C)CC3)cc2)CCC1(C)C (centres unmarked) [Compound 154]

- λmax ([1]; Table 1): ~340 nm
- % λmax (% of original absorbance remaining) [2]: 49%
- Photostability, % remaining after irradiation ([2]; exposure to the lamp for 1 h): 49%
- % abs total (% of original absorbance remaining) [2]: 56%
SMILES: CCCCC(CC)CN(c1ccc(C(=O)C2=CN(C(C)(C)C)CCC2(C)C)cc1)c1ccc(C(=O)C2=CN(C(C)(C)C)CCC2(C)C)cc1 (centres unmarked) [Compound 136]

- Solubility in standard commercial sunscreen formulations [3]: readily soluble
SMILES: CCCOC(=O)CCC(=O)C1=CN(c2ccc(N3C=C(C(=O)CCC(=O)OCCC)C(C)(C)CC3)cc2)CCC1(C)C [Compound 152]

- λcrit ([1]; Table 1): 364 nm
- Photostability, % remaining after irradiation ([2]; exposure to the lamp for 1 h): 22%
SMILES: CN(CCCCCCN(C)c1ccc(C(=O)C2=CN(C(C)(C)C)CCC2(C)C)cc1)c1ccc(C(=O)C2=CN(C(C)(C)C)CCC2(C)C)cc1 [Compound 109]

- Solubility in standard commercial sunscreen formulations [3]: readily soluble
SMILES: CC(C)=CCCC(C)CC(=O)C1=CN(c2ccc(N3C=C(C(=O)CC(C)CCC=C(C)C)C(C)(C)CC3)cc2)CCC1(C)C (centres unmarked) [Compound 155]

- Solubility in standard commercial sunscreen formulations [3]: readily soluble
- % λmax (% of original absorbance remaining) [2]: 54%
SMILES: CC1(C)CCN(c2ccc(N3C=C(C(=O)CCC(F)(F)F)C(C)(C)CC3)cc2)C=C1C(=O)CCC(F)(F)F [Compound 157]
